In publication PMC7960226 (Science (New York, N.Y.), 2020):
pIC50, pKd: −log10 of the molar value. Read-outs that look alike come from different tables or passages of the source. Marks after values point to notes of the source that are not given here.

Legend:
SLCO1B1 = biological target: T1, SLCO1B1 (Homo sapiens, UniProt Q9Y6L6); assay: in vitro transporter assay, SLCO1B1
T1 sequence (Q9Y6L6 1-691): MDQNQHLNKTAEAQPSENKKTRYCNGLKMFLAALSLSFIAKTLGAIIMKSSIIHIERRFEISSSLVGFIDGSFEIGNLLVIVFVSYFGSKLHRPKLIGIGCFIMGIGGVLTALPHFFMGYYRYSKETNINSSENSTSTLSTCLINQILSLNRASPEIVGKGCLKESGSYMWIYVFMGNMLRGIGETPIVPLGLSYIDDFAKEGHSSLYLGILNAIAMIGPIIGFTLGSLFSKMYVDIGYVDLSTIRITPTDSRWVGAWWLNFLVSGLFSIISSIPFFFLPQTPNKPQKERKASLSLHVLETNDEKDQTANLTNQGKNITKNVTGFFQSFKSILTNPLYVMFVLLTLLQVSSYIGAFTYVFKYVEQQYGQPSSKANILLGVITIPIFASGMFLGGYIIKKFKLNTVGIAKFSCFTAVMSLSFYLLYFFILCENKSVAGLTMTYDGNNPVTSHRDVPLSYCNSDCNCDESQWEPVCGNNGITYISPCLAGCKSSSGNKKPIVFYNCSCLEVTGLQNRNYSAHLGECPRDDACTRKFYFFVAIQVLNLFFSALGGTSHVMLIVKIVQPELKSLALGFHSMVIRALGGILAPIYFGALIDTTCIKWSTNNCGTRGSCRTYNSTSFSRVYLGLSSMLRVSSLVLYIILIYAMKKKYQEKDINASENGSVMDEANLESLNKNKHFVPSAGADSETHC

ADRA1A = biological target: T2, ADRA1A (Homo sapiens, UniProt P35348); conditions: Table 2, ADRA1A; accurate to ±20%
T2 sequence (P35348 1-466): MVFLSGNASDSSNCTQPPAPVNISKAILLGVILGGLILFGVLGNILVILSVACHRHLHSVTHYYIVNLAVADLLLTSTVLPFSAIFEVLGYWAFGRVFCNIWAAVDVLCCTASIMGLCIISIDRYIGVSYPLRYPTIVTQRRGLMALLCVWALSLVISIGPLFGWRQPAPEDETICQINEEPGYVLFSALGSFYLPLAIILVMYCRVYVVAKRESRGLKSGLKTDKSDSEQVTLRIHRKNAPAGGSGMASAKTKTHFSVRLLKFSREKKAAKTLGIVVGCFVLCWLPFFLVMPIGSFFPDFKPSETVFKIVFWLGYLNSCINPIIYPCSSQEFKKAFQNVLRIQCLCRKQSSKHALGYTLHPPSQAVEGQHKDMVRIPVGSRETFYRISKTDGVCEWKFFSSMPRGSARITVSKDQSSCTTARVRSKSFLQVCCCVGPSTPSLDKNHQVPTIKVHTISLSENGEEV

CHRM1 = biological target: T3, CHRM1 (Homo sapiens, UniProt P11229); conditions: Table 2, CHRM1; accurate to ±20%
T3 sequence (P11229 1-460): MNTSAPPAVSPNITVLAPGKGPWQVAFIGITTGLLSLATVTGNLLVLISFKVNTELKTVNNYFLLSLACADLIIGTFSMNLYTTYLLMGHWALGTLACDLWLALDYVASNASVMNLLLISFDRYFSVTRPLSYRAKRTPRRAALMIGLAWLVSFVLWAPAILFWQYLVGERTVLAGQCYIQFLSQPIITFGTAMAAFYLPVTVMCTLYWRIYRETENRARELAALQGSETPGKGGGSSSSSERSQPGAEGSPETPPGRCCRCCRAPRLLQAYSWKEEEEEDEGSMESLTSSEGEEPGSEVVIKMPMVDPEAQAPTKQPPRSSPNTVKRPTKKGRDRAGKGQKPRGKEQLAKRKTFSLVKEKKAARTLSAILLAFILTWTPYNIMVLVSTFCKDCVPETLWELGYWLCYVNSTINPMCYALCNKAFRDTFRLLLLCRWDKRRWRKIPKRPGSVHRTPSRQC

SLC6A2 = SLC6A2 (Homo sapiens, UniProt P23975); conditions: Table 2, SLC6A2; accurate to ±20%
SLC6A2, sequence (P23975 whole entry, species assumed): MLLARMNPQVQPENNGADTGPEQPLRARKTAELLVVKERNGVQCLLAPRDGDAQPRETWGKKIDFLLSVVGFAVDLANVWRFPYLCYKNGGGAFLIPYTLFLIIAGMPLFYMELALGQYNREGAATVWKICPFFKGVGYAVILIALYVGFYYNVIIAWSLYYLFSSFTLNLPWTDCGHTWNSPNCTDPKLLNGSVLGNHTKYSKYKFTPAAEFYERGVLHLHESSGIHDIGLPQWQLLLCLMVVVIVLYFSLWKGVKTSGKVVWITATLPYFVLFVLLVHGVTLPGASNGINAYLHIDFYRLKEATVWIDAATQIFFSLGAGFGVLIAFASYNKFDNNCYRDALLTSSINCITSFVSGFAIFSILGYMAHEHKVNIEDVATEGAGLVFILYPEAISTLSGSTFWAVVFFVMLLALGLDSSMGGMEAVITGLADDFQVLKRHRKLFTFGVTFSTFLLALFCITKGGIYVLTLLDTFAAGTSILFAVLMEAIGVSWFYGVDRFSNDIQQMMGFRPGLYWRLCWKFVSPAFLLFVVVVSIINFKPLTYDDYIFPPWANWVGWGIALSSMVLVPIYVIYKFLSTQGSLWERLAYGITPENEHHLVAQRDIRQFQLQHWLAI

SLC18A2 = SLC18A2 (Homo sapiens, UniProt Q05940); assay: transporter inhibition, SLC18A2; format: biochemical; conditions: Table 2, SLC18A2; accurate to ±20%
SLC18A2, sequence (Q05940 whole entry, species assumed): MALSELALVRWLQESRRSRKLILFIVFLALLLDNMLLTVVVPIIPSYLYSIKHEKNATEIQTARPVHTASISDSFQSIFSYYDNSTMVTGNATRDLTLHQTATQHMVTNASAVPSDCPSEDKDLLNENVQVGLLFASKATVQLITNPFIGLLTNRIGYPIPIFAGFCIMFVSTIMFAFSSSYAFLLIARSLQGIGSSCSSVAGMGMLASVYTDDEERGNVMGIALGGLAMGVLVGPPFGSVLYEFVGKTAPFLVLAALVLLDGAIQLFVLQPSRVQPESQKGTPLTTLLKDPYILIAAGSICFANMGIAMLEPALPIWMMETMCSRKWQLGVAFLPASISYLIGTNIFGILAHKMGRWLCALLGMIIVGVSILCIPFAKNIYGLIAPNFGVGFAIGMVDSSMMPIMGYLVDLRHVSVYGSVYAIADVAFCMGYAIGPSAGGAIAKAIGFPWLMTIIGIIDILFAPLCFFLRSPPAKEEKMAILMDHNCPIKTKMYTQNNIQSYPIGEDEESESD

SLCO2B1 = biological target: T4, SLCO2B1 (Homo sapiens, UniProt O94956); assay: in vitro transporter inhibition, SLCO2B1; format: biochemical; conditions: Table 1, predicted target SLCO2B1
T4 sequence (O94956 1-709): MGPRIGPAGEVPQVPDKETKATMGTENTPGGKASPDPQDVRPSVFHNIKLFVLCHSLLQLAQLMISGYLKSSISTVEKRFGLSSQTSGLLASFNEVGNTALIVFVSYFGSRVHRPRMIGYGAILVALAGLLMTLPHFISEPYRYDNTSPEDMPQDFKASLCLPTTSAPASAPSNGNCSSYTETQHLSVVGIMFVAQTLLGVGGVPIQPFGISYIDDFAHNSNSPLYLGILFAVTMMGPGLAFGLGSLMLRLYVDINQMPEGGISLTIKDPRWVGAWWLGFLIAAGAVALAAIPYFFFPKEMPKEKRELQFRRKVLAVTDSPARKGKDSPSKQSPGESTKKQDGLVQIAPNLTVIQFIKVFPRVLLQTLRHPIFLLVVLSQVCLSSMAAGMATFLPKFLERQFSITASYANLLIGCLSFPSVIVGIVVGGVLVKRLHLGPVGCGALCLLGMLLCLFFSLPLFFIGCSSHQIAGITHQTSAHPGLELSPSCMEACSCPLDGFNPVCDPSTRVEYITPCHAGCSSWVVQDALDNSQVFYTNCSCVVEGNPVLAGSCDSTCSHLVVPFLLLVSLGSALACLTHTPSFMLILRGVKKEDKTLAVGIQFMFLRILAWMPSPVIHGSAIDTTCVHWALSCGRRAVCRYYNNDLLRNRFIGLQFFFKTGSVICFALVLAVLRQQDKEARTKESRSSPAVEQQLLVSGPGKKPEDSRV

[1] = Madin-Darby canine kidney permeability assay
[2] = rat, in vivo, 1 mg/kg
PDE3A = PDE3A (Homo sapiens, UniProt Q14432); assay: safety panel assay, PDE3A; format: biochemical; conditions: Table 2, PDE3A; accurate to ±20%
PDE3A, sequence (Q14432 whole entry, species assumed): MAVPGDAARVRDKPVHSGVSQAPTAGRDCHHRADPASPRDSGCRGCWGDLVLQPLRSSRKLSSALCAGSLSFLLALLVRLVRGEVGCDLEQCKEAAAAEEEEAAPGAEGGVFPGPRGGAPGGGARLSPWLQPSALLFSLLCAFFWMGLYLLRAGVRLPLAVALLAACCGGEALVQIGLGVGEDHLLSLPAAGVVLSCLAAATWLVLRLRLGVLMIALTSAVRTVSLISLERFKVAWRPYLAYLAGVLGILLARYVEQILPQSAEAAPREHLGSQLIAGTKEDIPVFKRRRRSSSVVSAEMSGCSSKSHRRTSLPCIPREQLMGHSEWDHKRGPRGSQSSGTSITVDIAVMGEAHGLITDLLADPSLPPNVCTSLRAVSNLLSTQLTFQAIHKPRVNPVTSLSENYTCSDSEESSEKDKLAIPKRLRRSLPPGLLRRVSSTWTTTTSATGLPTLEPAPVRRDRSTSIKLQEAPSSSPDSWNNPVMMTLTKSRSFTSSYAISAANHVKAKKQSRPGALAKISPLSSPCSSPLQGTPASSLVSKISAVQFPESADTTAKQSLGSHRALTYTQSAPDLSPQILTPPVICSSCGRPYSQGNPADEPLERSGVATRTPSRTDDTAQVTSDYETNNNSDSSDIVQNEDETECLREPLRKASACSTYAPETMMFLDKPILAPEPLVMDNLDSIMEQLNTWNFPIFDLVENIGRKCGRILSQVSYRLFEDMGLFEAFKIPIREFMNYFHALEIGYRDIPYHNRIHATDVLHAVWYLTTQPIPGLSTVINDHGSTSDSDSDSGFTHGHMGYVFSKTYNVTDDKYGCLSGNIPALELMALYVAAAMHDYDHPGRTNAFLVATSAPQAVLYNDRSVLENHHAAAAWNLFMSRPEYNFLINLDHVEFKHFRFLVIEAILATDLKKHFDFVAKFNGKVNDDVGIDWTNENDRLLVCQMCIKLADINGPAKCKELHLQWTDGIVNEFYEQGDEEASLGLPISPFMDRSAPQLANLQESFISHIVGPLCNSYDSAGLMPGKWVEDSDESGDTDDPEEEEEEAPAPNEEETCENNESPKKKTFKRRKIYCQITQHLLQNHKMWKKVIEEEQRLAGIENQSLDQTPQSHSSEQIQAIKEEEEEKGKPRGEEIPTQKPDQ

PDE4D = PDE4D (Homo sapiens, UniProt Q08499); assay: in vitro assay, PDE4D; format: biochemical
PDE4D, sequence (Q08499 whole entry): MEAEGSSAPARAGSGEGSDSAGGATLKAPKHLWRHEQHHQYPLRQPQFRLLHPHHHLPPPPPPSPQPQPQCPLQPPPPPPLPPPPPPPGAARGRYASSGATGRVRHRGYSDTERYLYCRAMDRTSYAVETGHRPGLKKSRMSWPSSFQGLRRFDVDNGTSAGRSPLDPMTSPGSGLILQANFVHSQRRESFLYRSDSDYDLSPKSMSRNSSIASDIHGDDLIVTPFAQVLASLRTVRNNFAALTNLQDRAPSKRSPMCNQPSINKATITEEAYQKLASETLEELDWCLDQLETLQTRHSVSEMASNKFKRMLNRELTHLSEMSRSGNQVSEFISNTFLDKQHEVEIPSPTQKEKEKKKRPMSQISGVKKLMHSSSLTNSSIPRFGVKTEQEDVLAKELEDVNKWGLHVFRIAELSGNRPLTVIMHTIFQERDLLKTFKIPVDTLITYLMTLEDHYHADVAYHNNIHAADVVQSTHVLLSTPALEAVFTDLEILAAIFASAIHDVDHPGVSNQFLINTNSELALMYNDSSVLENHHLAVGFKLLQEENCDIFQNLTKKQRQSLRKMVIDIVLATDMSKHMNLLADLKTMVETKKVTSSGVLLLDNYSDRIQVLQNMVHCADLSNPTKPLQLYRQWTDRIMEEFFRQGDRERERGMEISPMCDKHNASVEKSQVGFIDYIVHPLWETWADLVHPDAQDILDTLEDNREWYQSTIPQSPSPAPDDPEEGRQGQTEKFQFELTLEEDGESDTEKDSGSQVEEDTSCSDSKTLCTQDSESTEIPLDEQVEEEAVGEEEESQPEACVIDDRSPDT

DRD3 = DRD3 (Homo sapiens, UniProt P35462); conditions: for pKd: read-out: dopamine D3 receptor Kd
DRD3, sequence (P35462 whole entry, species assumed): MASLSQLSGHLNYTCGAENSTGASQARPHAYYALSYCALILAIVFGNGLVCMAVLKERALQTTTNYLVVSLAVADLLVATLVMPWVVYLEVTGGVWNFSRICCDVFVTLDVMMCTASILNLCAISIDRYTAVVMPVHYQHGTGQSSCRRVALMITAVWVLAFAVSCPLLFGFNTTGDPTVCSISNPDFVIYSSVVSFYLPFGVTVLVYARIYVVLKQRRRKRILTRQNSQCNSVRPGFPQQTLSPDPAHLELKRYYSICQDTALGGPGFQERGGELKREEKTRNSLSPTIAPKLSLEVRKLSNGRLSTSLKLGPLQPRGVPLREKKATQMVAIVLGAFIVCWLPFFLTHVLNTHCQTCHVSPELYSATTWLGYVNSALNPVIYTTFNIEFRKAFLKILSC

rats = conditions: cited from earlier work
rat brain = conditions: prenatal treatment, rat brain ref 51; cited from earlier work
[3] = rat, in vivo, cited from earlier work
[4] = tested on: BioMAP Diversity PLUS panel; assay: BioMAP Diversity PLUS panel of cell-based systems
[5] = human adults after repeated vaccination ref 43; cited from earlier work
DRD5 = DRD5 (Homo sapiens, UniProt P21918); assay: in vitro assay, DRD5; format: binding
DRD5, sequence (P21918 whole entry, species assumed): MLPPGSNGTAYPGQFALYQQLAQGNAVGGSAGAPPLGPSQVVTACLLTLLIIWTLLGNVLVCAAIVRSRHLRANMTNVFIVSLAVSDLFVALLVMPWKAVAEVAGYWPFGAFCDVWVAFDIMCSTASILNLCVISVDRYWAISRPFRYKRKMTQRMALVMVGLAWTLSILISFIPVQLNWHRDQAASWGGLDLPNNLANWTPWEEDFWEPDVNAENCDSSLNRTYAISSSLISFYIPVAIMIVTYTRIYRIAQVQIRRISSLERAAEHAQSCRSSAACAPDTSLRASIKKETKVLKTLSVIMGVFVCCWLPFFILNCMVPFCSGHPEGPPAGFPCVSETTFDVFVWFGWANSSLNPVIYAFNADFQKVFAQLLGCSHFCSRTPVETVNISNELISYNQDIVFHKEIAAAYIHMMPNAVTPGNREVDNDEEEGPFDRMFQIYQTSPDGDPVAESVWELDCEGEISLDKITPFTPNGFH

PTGS2 = biological target: T5, PTGS2 (Homo sapiens, UniProt P35354); assay: safety panel assay, PTGS2; format: biochemical; conditions: Table 2, PTGS2; accurate to ±20%
T5 sequence (P35354 18-604): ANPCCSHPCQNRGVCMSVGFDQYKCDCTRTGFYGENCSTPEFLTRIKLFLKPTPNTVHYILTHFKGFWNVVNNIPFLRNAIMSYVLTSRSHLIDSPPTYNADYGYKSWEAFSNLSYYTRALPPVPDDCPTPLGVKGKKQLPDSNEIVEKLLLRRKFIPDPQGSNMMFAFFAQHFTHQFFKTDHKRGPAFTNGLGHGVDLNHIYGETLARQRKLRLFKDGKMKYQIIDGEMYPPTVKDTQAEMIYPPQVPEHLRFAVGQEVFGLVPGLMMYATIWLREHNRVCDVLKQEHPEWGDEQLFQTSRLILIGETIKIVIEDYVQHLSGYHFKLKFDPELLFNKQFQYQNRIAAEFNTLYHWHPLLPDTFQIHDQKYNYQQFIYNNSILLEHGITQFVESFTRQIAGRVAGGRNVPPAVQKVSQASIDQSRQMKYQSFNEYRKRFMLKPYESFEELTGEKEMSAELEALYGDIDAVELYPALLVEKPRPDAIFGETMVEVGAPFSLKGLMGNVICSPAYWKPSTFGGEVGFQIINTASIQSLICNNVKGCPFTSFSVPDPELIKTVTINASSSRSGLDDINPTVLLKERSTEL

[6] = Pharmacokinetics in rats after i.v. and oral administration

## CC1(C)[C@@H](O[C@H]2O[C@H](C(=O)O)[C@@H](O)[C@H](O)[C@H]2O[C@@H]2O[C@H](C(=O)O)[C@@H](O)[C@H](O)[C@H]2O)CC[C@]2(C)[C@H]3C(=O)C=C4[C@@H]5C[C@@](C)(C(=O)O)CC[C@]5(C)CC[C@@]4(C)[C@]3(C)CC[C@@H]12 [Glycyrrhizin]
SLCO1B1; Table 1, predicted target SLCO1B1
  Ki/IC50: 13 µM

## Cc1ccc(C(C)C)c(O)c1 [Thymol]
ADRA1A
  Ki/IC50 Or EC50: 26 µM
CHRM1
  Ki/IC50 Or EC50: 14 µM
SLC6A2
  Ki/IC50 Or EC50: 28 µM
SLC18A2
  Ki/IC50 Or EC50: 25 µM

## O=S(=O)([O-])c1ccc(N=Nc2c(O)ccc3cc(S(=O)(=O)[O-])ccc23)cc1.[Na+].[Na+] [FD&C Yellow No. 6]
SLCO2B1
  Ki/IC50: 74 µM

## Cc1ccc(N=Nc2c([O-])c(C(=O)O)cc3ccccc23)c(S(=O)(=O)[O-])c1.[Na+].[Na+] [D&C Red No. 6]
[1]; apparent permeability, Madin-Darby canine kidney permeability assay
  MDCK-LE Papp: <1.2 ×10⁻⁶ cm/s
SLCO1B1; Table 4, target SLCO1B1
  pIC50: 5.51
[2]
  %F: 2.5%

## CCCCC(CC)COC(=O)CC(C(=O)OCC(CC)CCCC)S(=O)(=O)O (centres unmarked) [Docusate sodium]
SLCO2B1
  Ki/IC50: 2.3 µM

## O=S(=O)([O-])c1ccc(N=Nc2c(O)ccc3ccccc23)cc1.[Na+] [D&C Orange No. 4]
SLCO2B1
  Ki/IC50: 1.9 µM

## COc1cc(S(=O)(=O)[O-])c(C)cc1N=Nc1c(O)ccc2cc(S(=O)(=O)[O-])ccc12.[Na+].[Na+] [FD&C Red No. 40]
SLCO2B1
  Ki/IC50: 4.7 µM

## CCCCCCCCCCCCCCCC(=O)O [Palmitic acid]
SLC18A2
  Ki/IC50 Or EC50: 4.4 µM
PDE3A
  Ki/IC50 Or EC50: 4.1 µM
PDE4D; Table 2, PDE4D, accurate to ±20%
  Ki/IC50 Or EC50: 6.6 µM

## C[CH2][Hg][S]c1ccccc1C(=O)[O-].[Na+] [Thimerosal]
DRD3; Table 4, target DRD3
  pIC50: 6.49
DRD3
  pKd: 6.49
rats; rats ref 48
  striatal D2 receptor density (immunohistochemistry): decline in striatal D2 receptor density
rats; rats treated postnatally ref 48
  behavioral effects: impaired locomotor function, increased anxiety/neophobia in the open field, and alterations in social behavior
Rat brain
  effect on serotonergic and dopaminergic systems: impaired the serotonergic and dopaminergic systems in the rat brain

## CCOC(=O)c1ccc(O)cc1 [Ethylparaben]
SLC18A2
  Ki/IC50 Or EC50: 22 µM

## CCOC(=O)c1ccccc1C(=O)OCC [Diethyl phthalate]
[3]; iv
  i.v. AUC 0–24 (d.n.): 553 ^† nM-hour
  t1/2 from i.v. dose: 1.0 ^† hours
[3]; po
  Cmax: 253 nM
  Oral AUC 0–last (d.n.): 350 ^† nM-hour
[4]; BioMAP, 1.1 to 30 μM
  TNF-α modulation: modulated tumor necrosis factor–α (TNF-α) in a dose-dependent manner
PDE4D; Table 1, PDE4D tested in place of SEA-predicted PDE4B and PDE1
  Ki/IC50: 8.5 µM

## CC(O)CO (centres unmarked) [propylene glycol]
[4]; 1.1, 3.3, 10, 30 μM
  activity in the BioMAP cell-based systems: no measurable activity

## C[CH2][Hg] [Ethyl mercury]
[5]
  median blood concentration of ethyl mercury: 0.14 ng/mL
DRD3; Table 2, DRD3, accurate to ±20%
  Ki/IC50 Or EC50: 0.21 µM
DRD3
  pKd: ~6.68
DRD3; listed as major metabolite
  pKd: 6.68
DRD5; Table 2, DRD5, accurate to ±20%
  Ki/IC50 Or EC50: 0.15 µM
DRD5; read-out: dopamine D5 receptor Kd
  pKd: ~6.82

## N[C@@H](CS)C(=O)O [Cysteine]
PTGS2
  Ki/IC50 Or EC50: 4.7 µM

## CCCCCCCCCCCCCCCC[n+]1ccccc1 [Cetylpyridinium chloride]
[6]; rat, in vivo, 1 mg/kg
  bioavailability: 5.4%
[6]; rat, in vivo, iv, 1 mg/kg
  half-life: 9.7 h
[6]; rat, in vivo, po, 1 mg/kg
  Cmax: 260 nM
[6]; rats, i.v. 1 mg/kg, dose normalized
  i.v. AUC 0–24 (d.n.): 15,972 nM-hour
[6]; rats, oral 1 mg/kg, dose normalized
  Oral AUC 0–last (d.n.): 4,052 nM-hour
[1]; dog, MDCK
  Papp: < 0.5 ×10⁻⁶ cm/s
